Results reported in ChEMBL document CHEMBL1201862, “PubChem BioAssay data set” (2004).
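1) Cells in 96-well plates. 2) Compound, 48 h, 5 concentrations. 3) Linear interpolation between surrounding doses. 4) Unreached endpoint = highest concentration. Here, GI50 denotes the concentration required for 50% inhibition of growth.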 Active and inactive are the calls of the source. Rule as the data show it: active = GI50 up to about 1.1 µM and inactive = higher.

Legend:
Test in all cases: NCI tumour cell line growth inhibition, 48 h
[1] = tested on: NCI-H23
[2] = tested on: SK-MEL-2
[3] = tested on: U-251
[4] = tested on: NCI-H460
[5] = tested on: NCI/ADR-RES
[6] = tested on: RPMI-8226
[7] = tested on: SNB-19
[8] = tested on: SF-268
[9] = tested on: SN12C
[10] = tested on: NCI-H522
[11] = tested on: KM12
[12] = tested on: HOP-62
[13] = tested on: HCT-116
[14] = tested on: MDA-MB-435
[15] = tested on: HCT-15
[16] = tested on: MDA-N
[17] = tested on: OVCAR-5
[18] = tested on: SF-539
[19] = tested on: 786-0
[20] = tested on: COLO 205

| SMILES | GI50 [1] | GI50 [2] | GI50 [3] | GI50 [4] | GI50 [5] | GI50 [6] | GI50 [7] | GI50 [8] | GI50 [9] | GI50 [10] | GI50 [11] | GI50 [12] | GI50 [13] | GI50 [14] | GI50 [15] [µM] | GI50 [16] | GI50 [17] | GI50 [18] | GI50 [19] | GI50 [20] |
| --- | --- | --- | --- | --- | --- | --- | --- | --- | --- | --- | --- | --- | --- | --- | --- | --- | --- | --- | --- | --- |
| COc1ccc(C(c2ccc(OC)cc2)N2C(=O)CCC2C(=O)O)cc1 (centres undefined) | > 100 µM (inactive) | > 100 µM (inactive) | > 100 µM (inactive) | > 100 µM (inactive) | > 100 µM (inactive) | > 100 µM (inactive) | > 100 µM (inactive) | > 100 µM (inactive) | > 100 µM (inactive) | > 100 µM (inactive) | > 100 µM (inactive) | > 100 µM (inactive) | > 100 µM (inactive) | > 100 µM (inactive) | > 100 | > 100 µM (inactive) | > 100 µM (inactive) | > 100 µM (inactive) | > 100 µM (inactive) | > 100 µM (inactive) |
| O=C(c1ccccc1)N1C(=S)N(c2ccc([N+](=O)[O-])cc2)C(=N/c2ccccc2)/C1=N\c1ccccc1 | > 100 µM (inactive) | > 100 µM (inactive) | 44.8 µM (inactive) | 72.1 µM (inactive) | > 100 µM (inactive) | > 100 µM (inactive) | > 100 µM (inactive) | > 100 µM (inactive) | > 100 µM (inactive) | 9.06 µM (inactive) | > 100 µM (inactive) | > 100 µM (inactive) | – | > 100 µM (inactive) | 65.2 | 52.7 µM (inactive) | > 100 µM (inactive) | > 100 µM (inactive) | > 100 µM (inactive) | > 100 µM (inactive) |
| OC[C@H]1O[C@@H](n2cnc3c(S)ncnc32)[C@H](O)[C@@H]1O [THIOINOSINE] | > 2500 µM (inactive) | 1490 µM (inactive) | > 2450 µM (inactive) | 2140 µM (inactive) | 2040 µM (inactive) | 1400 µM (inactive) | > 1580 µM (inactive) | > 2500 µM (inactive) | > 2500 µM (inactive) | 2160 µM (inactive) | > 2500 µM (inactive) | 2120 µM (inactive) | 2390 µM (inactive) | 2330 µM (inactive) | > 2500 | > 2310 µM (inactive) | > 2500 µM (inactive) | > 2500 µM (inactive) | > 2500 µM (inactive) | > 2230 µM (inactive) |
| O=c1[nH]c(=O)n(C2CC(O)C(CS)O2)cc1F (centres undefined) | > 94.4 µM (inactive) | > 100 µM (inactive) | 72.8 µM (inactive) | 6.87 µM (inactive) | 5.4 µM (inactive) | 67 µM (inactive) | 98.4 µM (inactive) | 20.8 µM (inactive) | 80.5 µM (inactive) | > 87.1 µM (inactive) | 99.1 µM (inactive) | 37.2 µM (inactive) | 56.6 µM (inactive) | > 92.7 µM (inactive) | 74.5 | 86.9 µM (inactive) | > 61.9 µM (inactive) | 11 µM (inactive) | 21.7 µM (inactive) | 52.5 µM (inactive) |
| C/N=c1\sc2c(n1C)C(=O)c1ccccc1C2=O | 0.566 µM (active) | 2.08 µM (inactive) | 2.55 µM (inactive) | 2.62 µM (inactive) | 3.95 µM (inactive) | 4.14 µM (inactive) | 3.4 µM (inactive) | 3.85 µM (inactive) | 1.64 µM (inactive) | 9.31 µM (inactive) | 3.37 µM (inactive) | 1.76 µM (inactive) | 2.85 µM (inactive) | 0.192 µM (active) | 2.03 | 0.222 µM (active) | 3.99 µM (inactive) | 2.01 µM (inactive) | 6.79 µM (inactive) | 5.3 µM (inactive) |
| Oc1cc(Cc2ccccc2)c(Cc2ccccc2)cc1O | > 10 µM (inactive) | > 10 µM (inactive) | > 10 µM (inactive) | > 10 µM (inactive) | > 10 µM (inactive) | > 10 µM (inactive) | > 10 µM (inactive) | > 10 µM (inactive) | > 10 µM (inactive) | > 10 µM (inactive) | > 10 µM (inactive) | > 10 µM (inactive) | > 10 µM (inactive) | > 10 µM (inactive) | > 10 | 1.67 µM (inactive) | > 10 µM (inactive) | > 10 µM (inactive) | > 10 µM (inactive) | > 10 µM (inactive) |
| CCOC(CN=C=S)OCC | > 10 µM (inactive) | > 10 µM (inactive) | > 10 µM (inactive) | > 10 µM (inactive) | > 10 µM (inactive) | 3.77 µM (inactive) | > 10 µM (inactive) | > 10 µM (inactive) | > 10 µM (inactive) | > 10 µM (inactive) | > 10 µM (inactive) | > 10 µM (inactive) | 7.4 µM (inactive) | > 10 µM (inactive) | > 10 | > 10 µM (inactive) | – | > 10 µM (inactive) | > 10 µM (inactive) | > 10 µM (inactive) |
| O=[N+]([O-])/C=C/c1cccc(F)c1 | 3.48 µM (inactive) | 12.4 µM (inactive) | 3.53 µM (inactive) | 12.2 µM (inactive) | 13.1 µM (inactive) | 1.48 µM (inactive) | 11.7 µM (inactive) | 12.4 µM (inactive) | 17 µM (inactive) | 12.3 µM (inactive) | 2.95 µM (inactive) | 10.3 µM (inactive) | 0.603 µM (active) | 3.24 µM (inactive) | 2.21 | 2.64 µM (inactive) | – | 4.45 µM (inactive) | 1.66 µM (inactive) | 2.74 µM (inactive) |
| COc1cc2oc(=O)ccc2cc1CC=C(C)C [SUBEROSIN] | 52.4 µM (inactive) | 45.3 µM (inactive) | 43.3 µM (inactive) | 50.8 µM (inactive) | 22.9 µM (inactive) | 19.5 µM (inactive) | 50.6 µM (inactive) | 47.8 µM (inactive) | 47.6 µM (inactive) | 42.3 µM (inactive) | 36.9 µM (inactive) | > 100 µM (inactive) | 38.6 µM (inactive) | 43.3 µM (inactive) | – | 52.5 µM (inactive) | 72.6 µM (inactive) | 37.7 µM (inactive) | > 10 µM (inactive) | 43.4 µM (inactive) |
| Cc1ccc(-c2nc3cc(Cl)ccc3[nH]2)cc1 | > 100 µM (inactive) | > 100 µM (inactive) | > 100 µM (inactive) | > 100 µM (inactive) | 71.3 µM (inactive) | 46.8 µM (inactive) | > 100 µM (inactive) | > 100 µM (inactive) | > 100 µM (inactive) | 91.2 µM (inactive) | 46.8 µM (inactive) | > 100 µM (inactive) | > 100 µM (inactive) | 54.1 µM (inactive) | 80.5 | 42.5 µM (inactive) | – | > 100 µM (inactive) | > 100 µM (inactive) | 71.6 µM (inactive) |
| O=C(O)CCC(N/N=N/c1ccc(-c2nc3ccccc3[nH]2)cc1)C(=O)O (centres undefined) | 71.3 µM (inactive) | 56.6 µM (inactive) | 43.7 µM (inactive) | 31.8 µM (inactive) | 27.8 µM (inactive) | 17.9 µM (inactive) | > 100 µM (inactive) | – | 60.4 µM (inactive) | > 100 µM (inactive) | 37.4 µM (inactive) | 48.8 µM (inactive) | 70.8 µM (inactive) | 52.8 µM (inactive) | 34 | 56 µM (inactive) | > 100 µM (inactive) | > 100 µM (inactive) | 52.1 µM (inactive) | > 100 µM (inactive) |
